Data on 12 compounds can be found in patent US20250084095A1, “Aminopyrimidine Derivatives as Cyclin-Dependent Kinase Inhibitors” (Accutar Biotechnology Inc., priority 2023, published 2025).

In one assay the test system is 22RV1 cells. The assay can be described thus: Cell growth inhibition of 22RV1 cells (CellTiter-Glo). The assay is classed as cell-based. The settings on record: Homo sapiens, 22Rv1, 120 h, 5 days, CellTiter-Glo, read-out: 22RV1 Cell Growh GI50. The procedure:
For cell growth assay, 22RV1 (ATCC, CRL-2505) cells were seeded in 96-well plates at 1000 cells/well in 90 μl of RPMI1640 growth medium containing 20% FBS and 1% Penicillin Streptomycin, and then incubated at 37° C. overnight. The following day, the test compound was administered to the cells by using 1000× compound stock solution prepared in DMSO at various concentrations. 1000× compound stock solution was first diluted in culturing medium to 10×, then 10 uL compound medium was added to each well in the cell plates. After administration of the compound, the cells were then incubated at 37° C. for 5 days. Upon completion, the plates were equilibrated at room temperature for approximately 10 min. 100 μl of CellTiter-Glo® Reagent (Promega) was added to each well. The plates were then incubated at room temperature for 10 min and luminescence was recorded by EnSpire plate reader (PerkinElmer).
22RV1 cells were obtained from American Type Culture Collection (ATCC, CRL-2505). 22RV1 cells were seeded in 96-well plates at 1000 cells/well in 90 μL of RPMI1640 growth medium containing 10% FBS and 1% Penicillin Streptomycin, and then incubated at 37° C. overnight. The following day, the test compound was administered to the cells by using 1000× compound stock solution prepared in DMSO at various concentrations. […], then 10 uL compound medium was added to each well in the cell plates. After administration of the compound, the cells were then incubated at […] for 5 days. Upon completion, the plates were equilibrated at room temperature for approximately 10 minutes. 100 μL of CellTiter-Glo® Reagent (Promega) was added to each well. The plates were then incubated at room temperature for 10 minutes and luminescence was recorded by EnSpire plate reader (PerkinElmer).

The subject of assay [1] is Phospho-Rb (Ser807/811) in MCF7 cells. Nature of the assay: Phospho-Rb expression inhibition in MCF7 cells quantified by in cell Western. The assay is classed as cell-based, human. Particulars: Homo sapiens, MCF7, 24 h, 24 hours, in cell Western, read-out: MCF7 pRb IC50. As for the experimental part:
MCF7 cells were obtained from American Type Culture Collection (ATCC, HTB-22). MCF7 cells were plated in 96-well plates (VWR #10062-900, or Coming #3904) in 90 μL culture medium at a density of 20,000 cells/well in the DMEM growth medium containing 10%/FBS and 1% Penicillin Streptomycin, and then incubated at 37° C. overnight. The following day, the test compound was administered to the cells by using 1000× compound stock solution prepared in DMSO at various concentrations. 1000× compound stock solution was first diluted in culturing medium to 10×, then 10 μL compound medium was added to each well in the cell plates. After administration of the compound, the cells were then incubated at 37° C. for 24 h. Upon completion, the cells were washed with PBS briefly. 150 μL/well of 4% formaldehyde was added and the plates were incubated at room temperature for 20 min. The cells were washed with PBS briefly, and permeabilized with 150 µL/well of ice cold 100% methanol for 10 min. The cells were washed with PBS briefly and blocked with 100 µL/well LI-COR blocking buffer for 1 h at room temperature with gentle shaking. The cells were incubated overnight at 4° C. with 50 μL primary antibody rabbit anti-Phospho-Rb (Ser807/811) (1: 500, Cell Signaling, #8516) and anti-Rb (1:200, Santa Cruz, sc-73598) diluted in Intercept Blocking Buffer (LI-COR, #927-60001) containing 0.1% Tween 20. The next day, the cells were washed with 200 μL PBS containing 0.1% Tween 20, 5×5 mins at room temperature with gentle shaking, and incubated with 50 μL secondary antibody, IRDye® 800CW Goat anti-Rabbit IgG (1:1000, LI-COR, #926-32211) and FRDye® 680RD Goat anti-Mouse IgG (1:1000, LI-COR, #926-68070), in LI-COR […] blocking buffer with 0.2% Tween 20 for 1 h at room temperature with gentle shaking. The cells were washed with 200 μL PBS containing 0.1% Tween 20, 5×5 min at room temperature with gentle shaking. The cells were washed with PBS for 5 mins. 100 μL fresh PBS was added to each well and the plates were imaged on a LI-COR Odyssey CLX plate reader.
MCF7 cells were obtained from American Type Culture Collection (ATCC, HTB-22). SW1573-CDK6 KO and SW1573-CDK4 KO cells were generated by the CRISPR-Cas9 technology. All cells were plated in 96-well plates (VWR #10062-900, or Corning #3904) in 90 uL culture medium at a density of 20,000 cells/well in the respective growth medium containing 10% FBS and 1% Penicillin Streptomycin, and then incubated at 37° C. overnight. The following day, the test compound was administered to the cells by using 1000× compound stock solution prepared in DMSO at various concentrations. 1000× compound stock solution was first diluted in culturing medium to 10×, then 10 uL compound medium was added to each well in the cell plates. After administration of the compound, the cells were then incubated at 37° C. for 24 hours. Upon completion, the cells were washed with PBS briefly. 150 uL/well of 4% formaldehyde was added and the plates were incubated at room temperature for 20 mins. The cells were washed with PBS briefly, and permeabilized with 150 uL/well of ice cold 100% methanol for 10 mins. The cells were washed with PBS briefly and blocked with 100 uL/well LI-COR blocking buffer for 1 hr at room temperature with gentle shaking. The cells were incubated overnight at 4° C. with 50 uL primary antibody rabbit anti-Phospho-Rb (Ser807/811) (1: 500, Cell Signaling, #8516) and anti-Rb (1:200, Santa Cruz, sc-73598) diluted in Intercept Blocking Buffer (LI-COR, #927-60001) containing 0.1% Tween 20. The next day, the cells were washed with 200 uL PBS containing 0.1% Tween 20, 5×5 mins at room temperature with gentle shaking, and incubated with 50 uL secondary antibody, IRDye® 800CW Goat anti-Rabbit IgG (1:1000, LI-COR, #926-32211) and IRDye®680RD Goat anti-Mouse IgG (1:1000, LI-COR, #926-68070), in LI-COR blocking buffer with 0.2% Tween 20 for 1 hr at room temperature with gentle shaking. […]

Some results are limits rather than exact numbers.

Take `CC1OCC(C)n2c1nc1c(F)cc(-c3nc(N[C@@H]4C[C@H]5CO[C@H](O5)[C@H]4O)ncc3Cl)cc12` (stereo partly drawn) [Compound 49, (1S,3R,4S,5R)-3-((5-chloro-4-(9-fluoro-1,4-dimethyl-3,4-dihydro-1H-benzo[4,5]imidazo[2,1-c][1,4]oxazin-7-yl)pyrimidin-2-yl)amino)-6,8-dioxabicyclo[3.2.1]octan-4-ol]: in the assay with 22RV1 cells, the GI50 was in the range of 120 to 450 nM. Moreover, the IC50 in assay [1] lay within 40 to 150 nM.
For the compound `CC(C)n1c(C(C)(C)O)nc2c(F)cc(-c3nc(N[C@@H]4C[C@H]5OC[C@H](O5)[C@H]4O)ncc3Cl)cc21` [Compound 72, (1S,2S,3R,5S)-3-((5-chloro-4-(4-fluoro-2-(2-hydroxypropan-2-yl)-1-isopropyl-1H-benzo[d]imidazol-6-yl)pyrimidin-2-yl)amino)-6,8-dioxabicyclo[3.2.1]octan-2-ol], in the assay with 22RV1 cells, the GI50 fell in the range of 120 to 450 nM. The IC50 in assay [1] lay within 40 to 150 nM.
For `CC(C)n1c(C(C)(C)O)nc2c(F)cc(-c3nc(N[C@@H]4C[C@@H]5CO[C@@H](O5)[C@H]4O)ncc3Cl)cc21` [Compound 137, (1R,3R,4S,5S)-3-((5-chloro-4-(4-fluoro-2-(2-hydroxypropan-2-yl)-1-isopropyl-1H-benzo[d]imidazol-6-yl)pyrimidin-2-yl)amino)-6,8-dioxabicyclo[3.2.1]octan-4-ol], in that order: greater than 3000 nM and 150 to 1000 nM.
For `CC(C)n1c(N2CC[C@@H](F)C2)nc2c(F)cc(-c3nc(N[C@@H]4C[C@H]5CO[C@H](O5)[C@H]4O)ncc3Cl)cc21` [Compound 151, (1S,3R,4S,5R)-3-((5-chloro-4-(4-fluoro-2-((R)-3-fluoropyrrolidin-1-yl)-1-isopropyl-1H-benzo[d]imidazol-6-yl)pyrimidin-2-yl)amino)-6,8-dioxabicyclo[3.2.1]octan-4-ol], in that order: 120 to 450 nM and 40 to 150 nM.
Taken in the same sequence, the figures for `CC(C)n1c(-c2ccccc2)nc2c(F)cc(-c3nc(N[C@@H]4C[C@H]5CO[C@H](O5)[C@H]4O)ncc3Cl)cc21` [Compound 163, (1S,3R,4S,5R)-3-((5-chloro-4-(4-fluoro-1-isopropyl-2-phenyl-1H-benzo[d]imidazol-6-yl)pyrimidin-2-yl)amino)-6,8-dioxabicyclo[3.2.1]octan-4-ol] were 120 to 450 nM and 40 to 150 nM.
For the compound `CC(C)(O)c1nc2c(F)cc(-c3nc(N[C@@H]4C[C@H]5CO[C@H](O5)[C@H]4O)ncc3Cl)cc2n1C1(CF)CC1` [Compound 167, (1S,3R,4S,5R)-3-((5-chloro-4-(4-fluoro-1-(1-(fluoromethyl)cyclopropyl)-2-(2-hydroxypropan-2-yl)-1H-benzo[d]imidazol-6-yl)pyrimidin-2-yl)amino)-6,8-dioxabicyclo[3.2.1]octan-4-ol], the GI50 in the assay with 22RV1 cells was no more than 120 nM. The IC50 in assay [1] lay in the range of 40 to 150 nM.
Consider `CC(C)n1c(C2(C(F)F)CC2)nc2c(F)cc(-c3nc(N[C@@H]4C[C@H]5CO[C@H](O5)[C@H]4O)ncc3Cl)cc21` [Compound 168, (1S,3R,4S,5R)-3-((5-chloro-4-(2-(1-(difluoromethyl)cyclopropyl)-4-fluoro-1-isopropyl-1H-benzo[d]imidazol-6-yl)pyrimidin-2-yl)amino)-6,8-dioxabicyclo[3.2.1]octan-4-ol], for which the GI50 with 22RV1 cells is no more than 120 nM. For the same compound, the IC50 in assay [1] lay in the range of 40 to 150 nM.
Taken in the same sequence, the figures for `CC(C)n1c(C(C)(C)C(F)F)nc2c(F)cc(-c3nc(N[C@@H]4C[C@H]5CO[C@H](O5)[C@H]4O)ncc3Cl)cc21` [Compound 169, (1S,3R,4S,5R)-3-((5-chloro-4-(2-(1,1-difluoro-2-methylpropan-2-yl)-4-fluoro-1-isopropyl-1H-benzo[d]imidazol-6-yl)pyrimidin-2-yl)amino)-6,8-dioxabicyclo[3.2.1]octan-4-ol] were no more than 120 nM and 40 to 150 nM.
Consider `CC(C)n1c(C2(F)COC2)nc2c(F)cc(-c3nc(N[C@@H]4C[C@H]5CO[C@H](O5)[C@H]4O)ncc3Cl)cc21` [Compound 170, (1S,3R,4S,5R)-3-((5-chloro-4-(4-fluoro-2-(3-fluorooxetan-3-yl)-1-isopropyl-1H-benzo[d]imidazol-6-yl)pyrimidin-2-yl)amino)-6,8-dioxabicyclo[3.2.1]octan-4-ol], for which the GI50 in the assay with 22RV1 cells was 450 to 3000 nM. Moreover, the IC50 in assay [1] fell in the range of 40 to 150 nM.
Taken in the same sequence, the figures for `CC(C)n1c(C2(O)COC2)nc2c(F)cc(-c3nc(N[C@@H]4C[C@H]5CO[C@H](O5)[C@H]4O)ncc3Cl)cc21` [Compound 172, (1S,3R,4S,5R)-3-((5-chloro-4-(4-fluoro-2-(3-hydroxyoxetan-3-yl)-1-isopropyl-1H-benzo[d]imidazol-6-yl)pyrimidin-2-yl)amino)-6,8-dioxabicyclo[3.2.1]octan-4-ol] were 120 to 450 nM and 40 to 150 nM.
Taken in the same sequence, the figures for `CC(C)N1CCOc2c(F)cc(-c3nc(N[C@@H]4C[C@H]5CO[C@H](O5)[C@H]4O)ncc3Cl)cc21` [Compound 173, (1S,3R,4S,5R)-3-((5-chloro-4-(8-fluoro-4-isopropyl-3,4-dihydro-2H-benzo[b][1,4]oxazin-6-yl)pyrimidin-2-yl)amino)-6,8-dioxabicyclo[3.2.1]octan-4-ol] were 120 to 450 nM and 40 to 150 nM.
Taken in the same sequence, the figures for `C[C@H]1COc2c(-c3nc(N[C@@H]4C[C@H]5CO[C@H](O5)[C@H]4O)ncc3Cl)cc(F)c3c2N1CCO3` [Compound 174, (1S,3R,4S,5R)-3-((5-chloro-4-((S)-9-fluoro-4-methyl-2,3,4,5-tetrahydro-1,6-dioxa-3a-azaphenalen-7-yl)pyrimidin-2-yl)amino)-6,8-dioxabicyclo[3.2.1]octan-4-ol] were 120 to 450 nM and 40 to 150 nM.
